Measured values taken from patent US10501460B2, “Heterocyclic compounds and uses thereof” (Plexxikon Inc., priority 2013, dated 2019).
pIC50: −log10 of the molar value.

Columns and labels:
[1] = system: bromodomain; assay: Bromodomain cell assays of Example 40 (at least one of them); assay type: cell-based; conditions: in at least one of the bromodomain cell assays described in Example 40
Description: (§1) Published bromodomain inhibitors JQ1 and iBET 151 have shown activity in variety of cancer cells such leukemia and lymphoma, multiple myeloma cells, NUT midline carcinoma and glioblastoma cells (Dawson M A et al. 2011; Delmore J E 2011; Chen Z et al. 2013; Filippakopoulos P et al. 2010; Mertz J A et al. 2011; Ott C J et al. 2012). In this study, we test compounds in different cancer cell lines. MV-4-11 and MOLM-13 are AML cell lines harboring a MLL-AF4 and MLL-AF9 translocation, respectively. MM.1S is a multiple myeloma cell line. SK-N-AS, IMR-32 and SK-N-BE(2) are neuroblastoma cell lines. IMR-32 and SK-N-BE(2) cell lines harbor MYCN amplifications. MV-4-11, MM.1S, IMR-32, SK-N-AS and SK-N-BE(2) were obtained from ATCC (IL, USA) and MOLM-13 were purchased from DSMZ (Braunschweig, German). Cells are cultured as recommended by their sources. For growth inhibition studies 3000 cells are seeded in wells of a 96-well plate in 75 μL of culture media. After several hours, growth media containing compounds of formula (I) are added to the wells. Compound at a maximal concentration of 5 mM was serially diluted 1:3 for a total of 8 point titration with DMSO as a control. A 1 μL aliquot of each dilution point is added to 249 μL growth media and 75 μL is added to each well containing cells, providing 10 μM compound at the maximum concentration point. The final concentration of DMSO in all wells is 0.2%. Cells are incubated for 72 hours, and 25 μL of CellTiter Glo Reagent (Promega Ga., USA) is added to each well. Plates are shaken for approximately 10 minutes and chemiluminescent signal is read on Tecan microplate reader. The measured luminescence correlates directly with cell number.
(§2) All data is normalized to the mean of eight DMSO high control wells on each plate. A four parameter curve fit of the following formula was then applied: Y=a+(b−a)/(1+(x/c)^d) Where ‘a’ is the minimum, ‘b’ is the maximum, ‘c’ is the pIC50 and ‘d’ is the Hill slope. […] Myc Reporter Assay
In MV-4-11 cells, BRD2, BRD3 and BRD4 bind to the promoter region of MYC and regulate its transcription (Dawson M A et al. 2011). The literature bromodomain inhibitor iBET 151 could disrupt BRD4 recruitment to the MYC promoter and subsequently downregulate c-myc transcription (Dawson M A et al. 2011). Myc protein is a transcription factor that heterodimerizes with an obligatory partner Max and regulates the transcription of genes important for cell proliferation, differentiation, and apoptosis. This Myc reporter assay is used to monitor the inhibitory effect of compound of formula (I) on Myc dependent gene expression. Effective compounds could have potential therapeutic effects in Myc-driven tumors.
The MV-4-11 Myc reporter cell line is established by infecting MV-4-11 with VSV-g pseudotyped lentivirus expressing the firefly luciferase gene under the control of a minimal (m) CMV promoter and tandem repeats of the E-box transcriptional response element (TRE) (Qiagen IL, USA) and selecting cells in […] Puromycin.
The MV-4-11 Myc reporter cell line is maintained in Iscove's Modified Dulbecco's Medium containing 10% FBS, 1% PenStep and 2.5 μg/ml Puromycin. Cells are incubated at 37° C. in a humidified atmosphere with 5% CO2. 25,000 cells are seeded in 96-well plate in 50 μL of culture media. After several hours, growth media containing 2× compounds are added to the wells. Compound at a maximal concentration of 5 mM is serially diluted 1:3 for a total of 8 point titration. A 1 μl aliquot of each dilution point is added to 249 μl growth media and 50 μl is added to each well containing cells, providing 10 μM compound at the maximum concentration point. DMSO treated cells serve as a high control and 10 μM JQ1 treated cells serve as a low control. Cells are incubated for a further 24 hours and 25 μL of CellTiter-Fluo Reagent (Promega Ga., USA) is added to each well. Plates are shaken for approximately 2 minutes and incubated at 37° C. for 0.5 hour. […]

[2] = system: MV-4-11; assay: Oncology cell growth assay MV-4-11 (CellTiter Glo, 72 hours); assay type: cell-based; conditions: Homo sapiens, MV4-11, 72 h; MV-4-11 cell growth inhibitory activity, 3d
Description: as §1, §2
The following table provides data indicating the BRD4 biochemical inhibitory activity and MV-4-11 cell growth inhibitory activity for exemplary compounds as described herein.

Row | SMILES | pIC50 [1] | IC50 [2] [µM]
1 | C=CCn1cc(-c2cn(S(=O)(=O)C3CC3)c3cc(-c4c(C)noc4C)cnc23)cn1 [P-0139, 4-[3-(1-allylpyrazol-4-yl)-1-cyclopropylsulfonyl-pyrrolo[3,2-b]pyridin-6-yl]-3,5-dimethyl-isoxazole] | > 5.00 | ≤ 1
2 | Cc1noc(C)c1-c1cnc2c(-c3cnn(C(F)F)c3)cn(CC3CCC(F)(F)CC3)c2c1 [P-0210, 4-[1-[(4,4-difluorocyclohexyl)methyl]-3-[1-(difluoromethyl)pyrazol-4-yl]pyrrolo[3,2-b]pyridin-6-yl]-3,5-dimethyl-isoxazole] | > 5.00 | ≤ 1
3 | CCCS(=O)(=O)n1cc(-c2cnn(CC(F)(F)F)c2)c2ncc(-c3c(C)noc3C)cc21 [P-0150, 3,5-dimethyl-4-[1-propylsulfonyl-3-[1-(2,2,2-trifluoroethyl)pyrazol-4-yl]pyrrolo[3,2-b]pyridin-6-yl]isoxazole] | > 5.00 | ≤ 1
4 | CCc1[nH]c2ncc(-c3c(C)noc3C)cc2c1C(OC)C1CCC(F)(F)CC1 (centres unmarked) [P-0045, 4-[3-[(4,4-difluorocyclohexyl)-methoxy-methyl]-2-ethyl-1H-pyrrolo[2,3-b]pyridin-5-yl]-3,5-dimethyl-isoxazole] | > 5.00 | ≤ 1
5 | Cc1noc(C)c1-c1cnc2c(CC3CC3)cn(S(=O)(=O)C3CCCCC3)c2c1 [P-0075, 4-[1-cyclohexylsulfonyl-3-(cyclopropylmethyl)pyrrolo [3,2-b]pyridin-6-yl]-3,5-dimethyl-isoxazole] | > 5.00 | 1 to 10
6 | CCCS(=O)(=O)n1cc(-c2cnn(C(F)F)c2)c2ncc(-c3c(C)noc3C)cc21 [P-0135, 4-[3-[1-(difluoromethyl)pyrazol-4-yl]-1-propylsulfonyl-pyrrolo [3,2-b]pyridin-6-yl]-3,5-dimethyl-isoxazole] | > 5.00 | ≤ 1
7 | Cc1noc(C)c1-c1cnc2c(-c3cnn(C)c3)cn(CC3CCC(F)(F)CC3)c2c1 [P-0209, 4-[1-[(4,4-difluorocyclohexyl)methyl]-3-(1-methylpyrazol-4-yl)pyrrolo[3,2-b]pyridin-6-yl]-3,5-dimethyl-isoxazole] | > 5.00 | ≤ 1
8 | Cc1noc(C)c1-c1cnc2c(-c3cnn(C)c3)cn(Cc3c(Cl)cccc3Cl)c2c1 [P-0189, 4-[1-[(2,6-dichlorophenyl)methyl]-3-(1-methylpyrazol-4-yl)pyrrolo[3,2-b]pyridin-6-yl]-3,5-dimethyl-isoxazole] | > 5.00 | ≤ 1
9 | Cc1noc(C)c1-c1cnc2c(-c3cnn(C4CCOC4)c3)cn(C(C)c3ccccc3)c2c1 (centres unmarked) [P-0204, 3,5-dimethyl-4-[1-(1-phenylethyl)-3-(1-tetrahydrofuran-3-ylpyrazol-4-yl)pyrrolo[3,2-b]pyridin-6-yl]isoxazole] | > 5.00 | ≤ 1
10 | [2H]C([2H])(O)C(c1ccccc1)n1cc(-c2cnn(C)c2)c2ncc(-c3c(C)noc3C)cc21 (centres unmarked) [P-0218, 1,1-dideuterio-2-[6-(3,5-dimethylisoxazol-4-yl)-3-(1-methylpyrazol-4-yl)pyrrolo[3,2-b]pyridin-1-yl]-2-phenyl-ethanol] | > 5.00 | ≤ 1
11 | C=CCn1cc(-c2cn(S(=O)(=O)CCC(F)(F)F)c3cc(-c4c(C)noc4C)cnc23)cn1 [P-0129, 4-[3-(1-allylpyrazol-4-yl)-1-(3,3,3-trifluoropropylsulfonyl)pyrrolo[3,2-b]pyridin-6-yl]-3,5-dimethyl-isoxazole] | > 5.00 | ≤ 1
12 | Cc1noc(C)c1-c1cnc2c(-c3cnn(C(F)F)c3)cn(S(=O)(=O)C3CCCC3)c2c1 [P-0133, 4-[1-cyclopentylsulfonyl-3-[1-(difluoromethyl)pyrazol-4-yl]pyrrolo [3,2-b]pyridin-6-yl]-3,5-dimethyl-isoxazole] |  | ≤ 1

Results, then the molecule that gave them:

Row | pIC50 [1] | IC50 [2] [µM] | SMILES
13 | > 5.00 | 1 to 10 | Cc1noc(C)c1-c1cnc2[nH]cc(C(O)c3cccc4c3OC(F)(F)O4)c2c1 (centres unmarked) [P-0041, (2,2-difluoro-1,3-benzodioxol-4-yl)-[5-(3,5-dimethylisoxazol-4-yl)-1H-pyrrolo[2,3-b]pyridin-3-yl] methanol]
14 | > 5.00 | ≤ 1 | COc1ncc(F)cc1C(OC)c1c[nH]c2ncc(-c3c(C)noc3C)cc12 (centres unmarked) [P-0011, 4-[3-[(5-fluoro-2-methoxy-3-pyridyl)-methoxy-methyl]-1H-pyrrolo[2,3-b]pyridin-5-yl]-3,5-dimethyl-isoxazole]
15 | > 5.00 | 1 to 10 | Cc1noc(C)c1-c1cnc2[nH]cc(Cc3c(F)cccc3Cl)c2c1 [P-0027, 4-[3-[(2-chloro-6-fluoro-phenyl)methyl]-1H-pyrrolo [2,3-b]pyridin-5-yl]-3,5-dimethyl-isoxazole]
16 | > 5.00 | ≤ 1 | Cc1noc(C)c1-c1cnc2[nH]cc(P(C)(=O)c3ccccc3)c2c1 (centres unmarked) [P-0165, 3,5-dimethyl-4-[3-[methyl(phenyl)phosphoryl]-1H-pyrrolo[2,3-b]pyridin-5-yl]isoxazole]
17 | > 5.00 | 1 to 10 | Cc1noc(C)c1-c1cnc2c(c1)c(C(O)C1CCSCC1)cn2S(=O)(=O)c1ccccc1 (centres unmarked) [P-0090, [1-(benzenesulfonyl)-5-(3,5-dimethylisoxazol-4-yl)pyrrolo[2,3-b]pyridin-3-yl]-tetrahydrothiopyran-4-yl-methanol]
18 | > 5.00 | 1 to 10 | Cc1ccc(S(=O)(=O)n2ccc3ncc(-c4c(C)noc4C)cc32)s1 [P-0062, 3,5-dimethyl-4-[1-[(5-methyl-2-thienyl)sulfonyl]pyrrolo[3,2-b]pyridin-6-yl]isoxazole]
19 | > 5.00 | ≤ 1 | Cc1noc(C)c1-c1cnc2c(-c3cnn(C)c3)cn([C@H](C)c3ccccc3)c2c1 [P-0223, 3,5-dimethyl-4-[3-(1-methylpyrazol-4-yl)-1-[(1R)-1-phenylethyl]pyrrolo[3,2-b]pyridin-6-yl]isoxazole]
20 | > 5.00 | ≤ 1 | Cc1noc(C)c1-c1cnc2c(-c3cccnc3)cn(S(=O)(=O)c3ccccc3)c2c1 [P-0084, 4-[1-(benzenesulfonyl)-3-(3-pyridyl)pyrrolo[3,2-b]pyridin-6-yl]-3,5-dimethyl-isoxazole]
21 | > 5.00 | ≤ 1 | Cc1noc(C)c1-c1cnc2[nH]cc(S(=O)(=O)c3cccc(F)c3)c2c1 [P-0143, 4-[3-(3-fluorophenyl)sulfonyl-1H-pyrrolo[2,3-b]pyridin-5-yl]-3,5-dimethyl-isoxazole]
22 |  | ≤ 1 | Cc1noc(C)c1-c1cnc2c(C#CCO)cn(S(=O)(=O)c3ccccc3)c2c1 [P-0155, 3-[1-(benzenesulfonyl)-6-(3,5-dimethylisoxazol-4-yl)pyrrolo[3,2-b]pyridin-3-yl]prop-2-yn-1-ol]
23 |  | ≤ 1 | Cc1noc(C)c1-c1cnc2[nH]cc(P(=O)(c3ccccc3)c3ccccc3)c2c1 [P-0166, 4-(3-diphenylphosphoryl-1H-pyrrolo[2,3-b]pyridin-5-yl)-3,5-dimethyl-isoxazole]
24 |  | ≤ 1 | Cc1noc(C)c1-c1cnc2c(c1)c(Sc1ccccc1)cn2-c1cnn(C)c1 [P-0184, 3,5-dimethyl-4-[1-(1-methylpyrazol-4-yl)-3-phenylsulfanyl-pyrrolo[2,3-b]pyridin-5-yl]isoxazole]
